# Test results taken from US9040545B2, “Heterocyclyl pyrazolopyrimidine analogues as selective JAK inhibitors” (Cellzome Limited, priority 2010, dated 2015).
# Assays:
# JAK2 = molecular target: T1, JAK2 (Homo sapiens, UniProt O60674); test: Kinobeads assay, JAK2; type: binding; details: mixed Molt4/Ramos lysate, read-out: Inhibition values (IC50) JAK2
# T1 construct: endogenous in cells; host or cells: mixed Molt4/Ramos lysate (1:2)
# How it was run: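 IC50 values come from dose-response curves of JAK2/JAK3 captured on immobilized aminopyrido-pyrimidine beads, quantified by antibody dot blot with infrared read-out. Compounds (1:3 series, 9 steps, from 5 mM DMSO stock) competed for 3 h in the cold with mixed Molt4/Ramos lysate (1:2, 10 mg/mL protein).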
# Aurora A = molecular target: T2, Aurora A (Homo sapiens, UniProt O14965); test: Kinobeads assay, Aurora A; type: binding; details: for IC50: lysate of pervanadate-treated Jurkat cells, read-out: Inhibition values (IC50) Aur A
# T2 construct: cell lysates from Jurkat cells (ATCC TIB-152) used; endogenous in cells; host or cells: Jurkat cells (ATCC TIB-152), treated with pervanadate
# T2 sequence (O14965 1-403): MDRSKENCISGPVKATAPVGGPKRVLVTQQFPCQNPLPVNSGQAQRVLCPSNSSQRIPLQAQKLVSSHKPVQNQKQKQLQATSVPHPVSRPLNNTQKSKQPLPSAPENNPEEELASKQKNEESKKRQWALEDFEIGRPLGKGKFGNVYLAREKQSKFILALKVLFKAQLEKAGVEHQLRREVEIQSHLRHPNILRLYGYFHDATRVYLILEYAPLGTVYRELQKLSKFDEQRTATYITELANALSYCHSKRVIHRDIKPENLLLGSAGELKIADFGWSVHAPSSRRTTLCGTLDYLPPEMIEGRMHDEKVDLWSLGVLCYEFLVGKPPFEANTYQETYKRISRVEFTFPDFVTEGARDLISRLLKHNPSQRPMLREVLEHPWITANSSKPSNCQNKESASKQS
# T1 sequence (O60674 whole entry): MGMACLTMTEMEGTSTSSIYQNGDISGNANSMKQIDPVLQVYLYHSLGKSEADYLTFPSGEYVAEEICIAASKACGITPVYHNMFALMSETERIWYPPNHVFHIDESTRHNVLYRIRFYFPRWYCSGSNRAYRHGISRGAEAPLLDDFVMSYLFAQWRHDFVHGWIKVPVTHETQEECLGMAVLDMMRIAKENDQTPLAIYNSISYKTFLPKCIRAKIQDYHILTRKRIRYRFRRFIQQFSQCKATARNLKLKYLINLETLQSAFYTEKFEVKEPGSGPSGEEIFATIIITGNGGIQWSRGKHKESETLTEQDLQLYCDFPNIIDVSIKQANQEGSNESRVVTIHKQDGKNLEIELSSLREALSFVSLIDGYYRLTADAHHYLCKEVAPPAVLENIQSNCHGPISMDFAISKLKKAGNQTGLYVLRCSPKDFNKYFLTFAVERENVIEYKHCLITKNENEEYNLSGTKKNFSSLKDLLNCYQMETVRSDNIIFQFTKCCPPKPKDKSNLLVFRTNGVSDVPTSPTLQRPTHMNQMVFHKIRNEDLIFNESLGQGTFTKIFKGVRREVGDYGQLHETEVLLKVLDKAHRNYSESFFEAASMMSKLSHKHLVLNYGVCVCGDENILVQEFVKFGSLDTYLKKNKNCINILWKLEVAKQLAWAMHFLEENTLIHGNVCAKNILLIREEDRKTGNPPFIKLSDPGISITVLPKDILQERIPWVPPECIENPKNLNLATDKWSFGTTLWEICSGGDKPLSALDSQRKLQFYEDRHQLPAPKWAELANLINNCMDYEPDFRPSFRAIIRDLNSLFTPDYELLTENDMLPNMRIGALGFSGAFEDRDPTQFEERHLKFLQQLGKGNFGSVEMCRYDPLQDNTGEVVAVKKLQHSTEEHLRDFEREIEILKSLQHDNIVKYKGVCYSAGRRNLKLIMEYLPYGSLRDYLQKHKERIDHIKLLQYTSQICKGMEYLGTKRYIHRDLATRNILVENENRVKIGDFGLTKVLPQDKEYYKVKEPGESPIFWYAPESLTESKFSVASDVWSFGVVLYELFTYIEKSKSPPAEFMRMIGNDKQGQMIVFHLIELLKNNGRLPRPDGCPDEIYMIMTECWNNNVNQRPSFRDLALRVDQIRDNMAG
SMILES,IC50 (JAK2) [µM],JAK3/AurA Fold Selectivity (Aurora A),IC50 (Aurora A) [µM]
"Cn1cc(Nc2ncc3cnn(Cc4cccc(N5CCNCC5)c4F)c3n2)cn1 [Example 67, 1-(2-Fluoro-3-(piperazin-1-yl)benzyl)-N-(1-methyl-1H-pyrazol-4-yl)-1H-pyrazolo[3,4-d]pyrimidin-6-amine]",1 to 10,>50 Fold,0.1 to 1
"CNC(=O)Cn1cc(Nc2ncc3cnn(Cc4cc(F)cc(N5CCOCC5=O)c4)c3n2)cn1 [Example 68, 2-(4-((1-(3-Fluoro-5-(3-oxomorpholino)benzyl)-1H-pyrazolo[3,4-d]pyrimidin-6-yl)amino)-1H-pyrazol-1-yl)-N-methylacetamide]",1 to 10,10-50 Fold,0.1 to 1
"Cn1cc(Nc2ncc3cnn(Cc4c(F)ccc(N5CCOCC5=O)c4F)c3n2)cn1 [Example 69, 4-(2,4-Difluoro-3-((6-((1-methyl-1H-pyrazol-4-yl)amino)-1H-pyrazolo[3,4-d]pyrimidin-1-yl)methyl)phenyl)morpholin-3-one]",1 to 10,3-10 Fold,< 0.1
"CN(C)CCCn1cc(Nc2ncc3cnn(Cc4c(F)c(F)cc(N5CCOCC5=O)c4F)c3n2)cn1 [Example 70, 4-(3-((6-((1-(3-(Dimethylamino)propyl)-1H-pyrazol-4-yl)amino)-1H-pyrazolo[3,4-d]pyrimidin-1-yl)methyl)-2,4,5-trifluorophenyl)morpholin-3-one]",1 to 10,>50 Fold,1 to 10
"Cn1cc(Nc2ncc3cnn(Cc4cc(N5CCNCC5=O)cc(F)c4F)c3n2)cn1 [Example 71, 1-(3,4-Difluoro-5-((6-((1-methyl-1H-pyrazol-4-yl)amino)-1H-pyrazolo[3,4-d]pyrimidin-1-yl)methyl)phenyl)piperazin-2-one]",≥ 10,10-50 Fold,0.1 to 1
"O=C1CNCCN1c1cc(F)c(F)c(Cn2ncc3cnc(Nc4cnn(CCO)c4)nc32)c1 [Example 72, 1-(3,4-Difluoro-5-((6-((1-(2-hydroxyethyl)-1H-pyrazol-4-yl)amino)-1H-pyrazolo[3,4-d]pyrimidin-1-yl)methyl)phenyl)piperazin-2-one]",≥ 10,10-50 Fold,0.1 to 1
"Cn1cc(Nc2ncc3cnn(Cc4cc(F)cc(N5CCOCC5=O)c4F)c3n2)cn1 [Example 73, 4-(2,5-Difluoro-3-((6-((1-methyl-1H-pyrazol-4-yl)amino)-1H-pyrazolo[3,4-d]pyrimidin-1-yl)methyl)phenyl)morpholin-3-one]",0.1 to 1,10-50 Fold,0.1 to 1
"O=C1COCCN1c1cc(F)cc(Cn2ncc3cnc(Nc4cnn(CCO)c4)nc32)c1F [Example 74, 4-(2,5-Difluoro-3-((6-((1-(2-hydroxyethyl)-1H-pyrazol-4-yl)amino)-1H-pyrazolo[3,4-d]pyrimidin-1-yl)methyl)phenyl)morpholin-3-one]",0.1 to 1,10-50 Fold,< 0.1
"CN(C)CCCn1cc(Nc2ncc3cnn(Cc4c(F)ccc(N5CCOCC5=O)c4F)c3n2)cn1 [Example 75, 4-(3-((6-((1-(3-(Dimethylamino)propyl)-1H-pyrazol-4-yl)amino)-1H-pyrazolo[3,4-d]pyrimidin-1-yl)methyl)-2,4-difluorophenyl)morpholin-3-one]",1 to 10,10-50 Fold,0.1 to 1
"Cn1cc(Nc2ncc3cnn(Cc4c(F)ccc(N5CCNCC5=O)c4F)c3n2)cn1 [Example 76, 1-(2,4-Difluoro-3-((6-((1-methyl-1H-pyrazol-4-yl)amino)-1H-pyrazolo[3,4-d]pyrimidin-1-yl)methyl)phenyl)piperazin-2-one]",1 to 10,3-10 Fold,< 0.1
"COC1CCN(c2cccc(Cn3ncc4cnc(Nc5cnn(C)c5)nc43)c2)CC1 [Example 77, 1-(3-(4-Methoxypiperidin-1-yl)benzyl)-N-(1-methyl-1H-pyrazol-4-yl)-1H-pyrazolo[3,4-d]pyrimidin-6-amine]",≥ 10,3-10 Fold,0.1 to 1
"OCCn1cc(Nc2ncc3cnn(Cc4cc(N5CCNCC5)cc(F)c4F)c3n2)cn1 [Example 78, 2-(4-((1-(2,3-Difluoro-5-(piperazin-1-yl)benzyl)-1H-pyrazolo[3,4-d]pyrimidin-6-yl)amino)-1H-pyrazol-1-yl)ethanol]",1 to 10,10-50 Fold,0.1 to 1
"Cn1cc(Nc2ncc3cnn(Cc4cc(F)cc(C(=O)N5CCOCC5)c4)c3n2)cn1 [Example 79, (3-Fluoro-5-((6-((1-methyl-1H-pyrazol-4-yl)amino)-1H-pyrazolo[3,4-d]pyrimidin-1-yl)methyl)phenyl)(morpholino)methanone]",0.1 to 1,10-50 Fold,0.1 to 1
"Cn1cc(Nc2ncc3cnn(Cc4cc(F)cc(C(=O)N5CCNCC5)c4)c3n2)cn1 [Example 80, (3-Fluoro-5-((6-((1-methyl-1H-pyrazol-4-yl)amino)-1H-pyrazolo[3,4-d]pyrimidin-1-yl)methyl)phenyl)(piperazin-1-yl)methanone]",1 to 10,3-10 Fold,0.1 to 1
"Fc1cc(N2CCOCC2)c(F)c(Cn2ncc3cnc(Nc4cn[nH]c4)nc32)c1F [Example 81, N-(1H-Pyrazol-4-yl)-1-(2,3,6-trifluoro-5-morpholinobenzyl)-1H-pyrazolo[3,4-d]pyrimidin-6-amine]",1 to 10,>50 Fold,0.1 to 1
"OCCn1cc(Nc2ncc3cnn(Cc4c(F)ccc(N5CCOCC5)c4F)c3n2)cn1 [Example 82, 2-(4-((1-(2,6-Difluoro-3-morpholinobenzyl)-1H-pyrazolo[3,4-d]pyrimidin-6-yl)amino)-1H-pyrazol-1-yl)ethanol]",≥ 10,3-10 Fold,0.1 to 1
"OCCn1cc(Nc2ncc3cnn(Cc4cccc(N5CCNCC5)c4F)c3n2)cn1 [Example 83, 2-(4-((1-(2-Fluoro-3-(piperazin-1-yl)benzyl)-1H-pyrazolo[3,4-d]pyrimidin-6-yl)amino)-1H-pyrazol-1-yl)ethanol]",1 to 10,10-50 Fold,0.1 to 1
"O=C1COCCN1c1cc(F)cc(Cn2ncc3cnc(Nc4cn[nH]c4)nc32)c1 [Example 84, 4-(3-((6-((1H-Pyrazol-4-yl)amino)-1H-pyrazolo[3,4-d]pyrimidin-1-yl)methyl)-5-fluorophenyl)morpholin-3-one]",0.1 to 1,>50 Fold,0.1 to 1
"O=C(c1cccc(Cn2ncc3cnc(Nc4cnn(CCO)c4)nc32)c1F)N1CCOCC1 [Example 85, (2-Fluoro-3-((6-((1-(2-hydroxyethyl)-1H-pyrazol-4-yl)amino)-1H-pyrazolo[3,4-d]pyrimidin-1-yl)methyl)phenyl)(morpholino)methanone]",1 to 10,>50 Fold,0.1 to 1
"Cn1cc(Nc2ncc3cnn(Cc4cc(N5CCNCC5)cc(F)c4F)c3n2)cn1 [Example 86, 1-(2,3-Difluoro-5-(piperazin-1-yl)benzyl)-N-(1-methyl-1H-pyrazol-4-yl)-1H-pyrazolo[3,4-d]pyrimidin-6-amine]",1 to 10,>50 Fold,1 to 10
"Cn1cc(Nc2ncc3cnn(Cc4cccc(C(=O)N5CCOCC5)c4F)c3n2)cn1 [Example 87, (2-Fluoro-3-((6-((1-methyl-1H-pyrazol-4-yl)amino)-1H-pyrazolo[3,4-d]pyrimidin-1-yl)methyl)phenyl)(morpholino)methanone]",1 to 10,>50 Fold,1 to 10
"Cn1cc(Nc2ncc3cnn(Cc4cccc(N5CCOCC5O)c4)c3n2)cn1 (stereo not drawn) [Example 88, 4-(3-((6-((1-Methyl-1H-pyrazol-4-yl)amino)-1H-pyrazolo[3,4-d]pyrimidin-1-yl)methyl)phenyl)morpholin-3-ol]",≥ 10,10-50 Fold,1 to 10
